US12528759B2, “Crystalline forms of bempedoic acid” (SYNTHON B.V., priority 2019, dated 2026)
Where two headings read alike, the source gives them in different places. Blank lines part the entries; values can stand above or below the compound they belong to.

How the values were obtained:
[1] = Flowability and stickiness of the solid form; format: physicochemical
[2] = Solubility; format: physicochemical
[3] = Stability of the crystalline form when dried in oven; format: physicochemical; conditions: e.g. 40° C.
[4] = Water content of the crystalline form under extreme high humidity; format: physicochemical
[5] = prior-art solid form of WO2018218147; cited from earlier work

flowability [1]: good
stickiness [1]: not sticky
SMILES: CC(C)(CCCCCC(O)CCCCCC(C)(C)C(=O)O)C(=O)O [Form A, 8-Hydroxy-2,2,14,14-tetramethylpentadecanedioic acid]

solubility [2]: good
stability when dried in oven [3]: stable
water content change when subjected to extreme high level of humidity ([4]; 70-90% relative humidity): did not change
water absorption or loss when subjected to extreme conditions ([4]; humidity above 70% relative humidity): does not absorb or lose water
SMILES: CC(C)(CCCCCC(O)CCCCCC(C)(C)C(=O)O)C(=O)O [Form B, 8-Hydroxy-2,2,14,14-tetramethylpentadecanedioic acid]

SMILES: CC(C)(CCCCCC(O)CCCCCC(C)(C)C(=O)O)C(=O)O [solid form of Bempedoic acid, 8-Hydroxy-2,2,14,14-tetramethylpentadecanedioic acid]
flow characteristics [5]: poor
stickiness [5]: very sticky
